{
  "source": "paper PMC7316778",
  "about": "(Nature Communications, 2020)",
  "assay_in_all_cases": "SelectScreen kinase assay",
  "key": {"[1]": {"biological_target": "PIK3CD/PIK3R1 (p110d/p85a) (Homo sapiens, UniProt O00329)", "settings": "1 h, 1 μM WEL028, 1 h preincubation", "protocol": "(§1) Selectivity profiling assays were performed by the Invitrogen SelectScreen™ Services. […] The concentration of ATP was selected to be equal to the KM, unless indicated otherwise."}, "CDC42 BPB (MRCKB)": {"biological_target": "CDC42 BPB (MRCKB) (Homo sapiens, UniProt Q9Y5S2)", "settings": "1 h, 1 μM WEL028, 1 h preincubation", "protocol": "as §1"}, "MYO3A (MYO3 alpha)": {"biological_target": "MYO3A (MYO3 alpha) (Homo sapiens, UniProt Q8NEV4)", "sequence (Q8NEV4 whole entry)": "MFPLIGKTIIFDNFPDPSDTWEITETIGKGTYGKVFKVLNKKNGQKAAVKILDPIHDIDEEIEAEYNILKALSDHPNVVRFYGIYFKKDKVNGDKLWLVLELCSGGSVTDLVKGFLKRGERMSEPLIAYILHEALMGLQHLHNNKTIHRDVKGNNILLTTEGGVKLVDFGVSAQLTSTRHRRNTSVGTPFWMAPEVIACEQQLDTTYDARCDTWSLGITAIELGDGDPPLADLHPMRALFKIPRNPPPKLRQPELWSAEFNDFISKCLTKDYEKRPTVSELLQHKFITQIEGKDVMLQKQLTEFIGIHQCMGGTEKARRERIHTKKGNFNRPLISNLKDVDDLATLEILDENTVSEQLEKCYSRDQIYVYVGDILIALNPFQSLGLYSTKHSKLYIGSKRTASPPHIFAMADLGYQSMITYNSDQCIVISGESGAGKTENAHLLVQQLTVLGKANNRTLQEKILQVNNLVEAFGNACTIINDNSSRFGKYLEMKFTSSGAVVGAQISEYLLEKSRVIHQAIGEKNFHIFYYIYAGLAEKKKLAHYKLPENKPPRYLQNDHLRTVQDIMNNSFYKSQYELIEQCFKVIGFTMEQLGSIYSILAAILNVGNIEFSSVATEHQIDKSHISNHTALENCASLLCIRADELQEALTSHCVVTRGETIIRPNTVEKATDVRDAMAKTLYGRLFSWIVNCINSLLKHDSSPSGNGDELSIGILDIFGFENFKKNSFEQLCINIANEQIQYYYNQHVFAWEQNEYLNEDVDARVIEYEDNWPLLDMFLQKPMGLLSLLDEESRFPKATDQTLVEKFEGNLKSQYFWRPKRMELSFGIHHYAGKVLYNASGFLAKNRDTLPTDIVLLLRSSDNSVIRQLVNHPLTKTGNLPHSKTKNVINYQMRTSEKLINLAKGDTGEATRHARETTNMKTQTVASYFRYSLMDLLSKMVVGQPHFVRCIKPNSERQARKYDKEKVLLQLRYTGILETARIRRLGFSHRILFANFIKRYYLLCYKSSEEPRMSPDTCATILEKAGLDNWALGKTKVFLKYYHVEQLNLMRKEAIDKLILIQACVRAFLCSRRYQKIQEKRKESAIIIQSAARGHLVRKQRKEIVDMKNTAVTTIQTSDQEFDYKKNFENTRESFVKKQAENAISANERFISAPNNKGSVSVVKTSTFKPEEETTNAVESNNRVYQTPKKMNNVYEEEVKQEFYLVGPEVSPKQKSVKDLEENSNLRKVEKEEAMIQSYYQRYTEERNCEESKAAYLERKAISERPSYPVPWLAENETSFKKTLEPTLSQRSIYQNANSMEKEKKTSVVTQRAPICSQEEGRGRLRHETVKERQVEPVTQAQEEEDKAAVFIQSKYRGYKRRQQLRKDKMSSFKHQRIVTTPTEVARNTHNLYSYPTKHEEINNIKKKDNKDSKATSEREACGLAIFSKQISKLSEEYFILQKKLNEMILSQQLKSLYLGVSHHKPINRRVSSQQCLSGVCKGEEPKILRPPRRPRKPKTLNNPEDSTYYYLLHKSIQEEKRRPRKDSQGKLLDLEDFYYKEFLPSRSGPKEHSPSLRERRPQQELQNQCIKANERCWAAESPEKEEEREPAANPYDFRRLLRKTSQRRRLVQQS", "protocol": "as §1"}, "CDKL5": {"biological_target": "T1, CDKL5 (Homo sapiens, UniProt O76039)", "T1 sequence (O76039 1-960)": "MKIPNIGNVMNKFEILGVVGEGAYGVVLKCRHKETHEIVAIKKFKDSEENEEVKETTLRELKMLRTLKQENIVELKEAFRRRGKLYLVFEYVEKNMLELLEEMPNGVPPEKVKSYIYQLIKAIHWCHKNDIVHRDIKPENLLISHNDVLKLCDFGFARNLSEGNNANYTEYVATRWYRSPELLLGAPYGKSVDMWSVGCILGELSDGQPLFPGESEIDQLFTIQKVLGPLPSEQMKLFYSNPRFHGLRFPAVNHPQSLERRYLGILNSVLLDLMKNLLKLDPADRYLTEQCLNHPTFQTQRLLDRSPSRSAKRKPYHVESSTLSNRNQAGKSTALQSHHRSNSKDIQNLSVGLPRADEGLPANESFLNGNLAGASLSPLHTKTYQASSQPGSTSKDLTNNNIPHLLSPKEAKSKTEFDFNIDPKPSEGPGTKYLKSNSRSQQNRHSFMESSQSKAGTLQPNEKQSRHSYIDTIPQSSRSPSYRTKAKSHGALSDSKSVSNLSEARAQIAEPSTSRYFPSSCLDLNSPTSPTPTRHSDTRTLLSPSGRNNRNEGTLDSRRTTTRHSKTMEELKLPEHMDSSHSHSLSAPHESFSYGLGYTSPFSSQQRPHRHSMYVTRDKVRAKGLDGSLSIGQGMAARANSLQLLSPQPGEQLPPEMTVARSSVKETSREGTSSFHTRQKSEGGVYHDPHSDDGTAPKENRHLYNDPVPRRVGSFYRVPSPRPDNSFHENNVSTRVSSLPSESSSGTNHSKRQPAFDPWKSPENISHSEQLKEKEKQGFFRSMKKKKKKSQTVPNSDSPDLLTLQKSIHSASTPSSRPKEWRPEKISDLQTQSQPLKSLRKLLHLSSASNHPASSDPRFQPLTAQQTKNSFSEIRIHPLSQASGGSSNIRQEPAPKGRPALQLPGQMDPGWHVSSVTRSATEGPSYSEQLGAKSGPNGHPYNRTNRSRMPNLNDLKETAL", "protocol": "as §1"}, "MAP3K8 (COT) [2]": {"tested_on": "MAP3K8 (COT)", "settings": "IC50 on that kinase divided by IC50 on FES^S700C", "protocol": "as §1"}, "MAP3K8 (COT) [3]": {"biological_target": "MAP3K8 (COT) (Homo sapiens, UniProt P41279)", "sequence (P41279 whole entry, species assumed)": "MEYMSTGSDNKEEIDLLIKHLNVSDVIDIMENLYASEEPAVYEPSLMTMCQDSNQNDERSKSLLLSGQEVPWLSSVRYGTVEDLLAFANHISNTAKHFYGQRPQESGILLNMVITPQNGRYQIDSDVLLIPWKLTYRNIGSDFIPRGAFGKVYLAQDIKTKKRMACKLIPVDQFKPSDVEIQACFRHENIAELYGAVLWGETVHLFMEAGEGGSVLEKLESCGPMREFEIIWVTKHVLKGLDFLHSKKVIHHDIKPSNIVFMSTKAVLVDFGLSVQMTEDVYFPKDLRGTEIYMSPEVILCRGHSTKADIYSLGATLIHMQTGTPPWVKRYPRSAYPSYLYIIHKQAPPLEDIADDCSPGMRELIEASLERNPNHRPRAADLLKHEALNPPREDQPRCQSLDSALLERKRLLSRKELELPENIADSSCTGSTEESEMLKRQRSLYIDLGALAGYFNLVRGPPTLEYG", "protocol": "as §1"}, "EPHA3": {"biological_target": "T2, EPHA3 (Homo sapiens, UniProt P29320)", "T2 sequence (P29320 21-983)": "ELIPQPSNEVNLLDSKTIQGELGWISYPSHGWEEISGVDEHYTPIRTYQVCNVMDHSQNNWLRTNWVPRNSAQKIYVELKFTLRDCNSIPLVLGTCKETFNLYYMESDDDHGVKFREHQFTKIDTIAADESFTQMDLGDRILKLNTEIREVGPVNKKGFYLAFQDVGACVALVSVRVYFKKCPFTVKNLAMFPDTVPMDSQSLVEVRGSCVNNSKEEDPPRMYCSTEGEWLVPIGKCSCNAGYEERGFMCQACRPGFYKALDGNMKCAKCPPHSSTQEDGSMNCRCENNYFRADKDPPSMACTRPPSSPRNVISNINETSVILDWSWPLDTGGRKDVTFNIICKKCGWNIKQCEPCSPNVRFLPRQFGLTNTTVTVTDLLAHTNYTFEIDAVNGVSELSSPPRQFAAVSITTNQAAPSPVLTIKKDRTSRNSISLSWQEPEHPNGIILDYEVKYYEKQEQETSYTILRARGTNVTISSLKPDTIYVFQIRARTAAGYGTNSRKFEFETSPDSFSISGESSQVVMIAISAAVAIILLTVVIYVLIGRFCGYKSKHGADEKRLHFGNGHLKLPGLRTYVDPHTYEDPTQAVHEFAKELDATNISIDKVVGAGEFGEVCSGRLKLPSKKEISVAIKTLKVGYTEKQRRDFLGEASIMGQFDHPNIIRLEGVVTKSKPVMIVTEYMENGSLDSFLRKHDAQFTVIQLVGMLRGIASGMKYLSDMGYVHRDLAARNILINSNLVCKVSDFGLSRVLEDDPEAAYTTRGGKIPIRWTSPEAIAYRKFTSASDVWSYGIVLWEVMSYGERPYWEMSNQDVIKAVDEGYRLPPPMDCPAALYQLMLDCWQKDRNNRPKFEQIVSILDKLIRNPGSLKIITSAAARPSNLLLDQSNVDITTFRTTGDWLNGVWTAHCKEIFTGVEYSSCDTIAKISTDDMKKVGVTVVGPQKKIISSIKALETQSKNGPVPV", "protocol": "as §1"}, "CHEK2 (CHK2)": {"biological_target": "CHEK2 (CHK2) (Homo sapiens, UniProt O96017)", "protocol": "as §1"}, "PI4KA (PI4K alpha)": {"biological_target": "PI4KA (PI4K alpha) (Homo sapiens, UniProt P42356)", "sequence (P42356 whole entry)": "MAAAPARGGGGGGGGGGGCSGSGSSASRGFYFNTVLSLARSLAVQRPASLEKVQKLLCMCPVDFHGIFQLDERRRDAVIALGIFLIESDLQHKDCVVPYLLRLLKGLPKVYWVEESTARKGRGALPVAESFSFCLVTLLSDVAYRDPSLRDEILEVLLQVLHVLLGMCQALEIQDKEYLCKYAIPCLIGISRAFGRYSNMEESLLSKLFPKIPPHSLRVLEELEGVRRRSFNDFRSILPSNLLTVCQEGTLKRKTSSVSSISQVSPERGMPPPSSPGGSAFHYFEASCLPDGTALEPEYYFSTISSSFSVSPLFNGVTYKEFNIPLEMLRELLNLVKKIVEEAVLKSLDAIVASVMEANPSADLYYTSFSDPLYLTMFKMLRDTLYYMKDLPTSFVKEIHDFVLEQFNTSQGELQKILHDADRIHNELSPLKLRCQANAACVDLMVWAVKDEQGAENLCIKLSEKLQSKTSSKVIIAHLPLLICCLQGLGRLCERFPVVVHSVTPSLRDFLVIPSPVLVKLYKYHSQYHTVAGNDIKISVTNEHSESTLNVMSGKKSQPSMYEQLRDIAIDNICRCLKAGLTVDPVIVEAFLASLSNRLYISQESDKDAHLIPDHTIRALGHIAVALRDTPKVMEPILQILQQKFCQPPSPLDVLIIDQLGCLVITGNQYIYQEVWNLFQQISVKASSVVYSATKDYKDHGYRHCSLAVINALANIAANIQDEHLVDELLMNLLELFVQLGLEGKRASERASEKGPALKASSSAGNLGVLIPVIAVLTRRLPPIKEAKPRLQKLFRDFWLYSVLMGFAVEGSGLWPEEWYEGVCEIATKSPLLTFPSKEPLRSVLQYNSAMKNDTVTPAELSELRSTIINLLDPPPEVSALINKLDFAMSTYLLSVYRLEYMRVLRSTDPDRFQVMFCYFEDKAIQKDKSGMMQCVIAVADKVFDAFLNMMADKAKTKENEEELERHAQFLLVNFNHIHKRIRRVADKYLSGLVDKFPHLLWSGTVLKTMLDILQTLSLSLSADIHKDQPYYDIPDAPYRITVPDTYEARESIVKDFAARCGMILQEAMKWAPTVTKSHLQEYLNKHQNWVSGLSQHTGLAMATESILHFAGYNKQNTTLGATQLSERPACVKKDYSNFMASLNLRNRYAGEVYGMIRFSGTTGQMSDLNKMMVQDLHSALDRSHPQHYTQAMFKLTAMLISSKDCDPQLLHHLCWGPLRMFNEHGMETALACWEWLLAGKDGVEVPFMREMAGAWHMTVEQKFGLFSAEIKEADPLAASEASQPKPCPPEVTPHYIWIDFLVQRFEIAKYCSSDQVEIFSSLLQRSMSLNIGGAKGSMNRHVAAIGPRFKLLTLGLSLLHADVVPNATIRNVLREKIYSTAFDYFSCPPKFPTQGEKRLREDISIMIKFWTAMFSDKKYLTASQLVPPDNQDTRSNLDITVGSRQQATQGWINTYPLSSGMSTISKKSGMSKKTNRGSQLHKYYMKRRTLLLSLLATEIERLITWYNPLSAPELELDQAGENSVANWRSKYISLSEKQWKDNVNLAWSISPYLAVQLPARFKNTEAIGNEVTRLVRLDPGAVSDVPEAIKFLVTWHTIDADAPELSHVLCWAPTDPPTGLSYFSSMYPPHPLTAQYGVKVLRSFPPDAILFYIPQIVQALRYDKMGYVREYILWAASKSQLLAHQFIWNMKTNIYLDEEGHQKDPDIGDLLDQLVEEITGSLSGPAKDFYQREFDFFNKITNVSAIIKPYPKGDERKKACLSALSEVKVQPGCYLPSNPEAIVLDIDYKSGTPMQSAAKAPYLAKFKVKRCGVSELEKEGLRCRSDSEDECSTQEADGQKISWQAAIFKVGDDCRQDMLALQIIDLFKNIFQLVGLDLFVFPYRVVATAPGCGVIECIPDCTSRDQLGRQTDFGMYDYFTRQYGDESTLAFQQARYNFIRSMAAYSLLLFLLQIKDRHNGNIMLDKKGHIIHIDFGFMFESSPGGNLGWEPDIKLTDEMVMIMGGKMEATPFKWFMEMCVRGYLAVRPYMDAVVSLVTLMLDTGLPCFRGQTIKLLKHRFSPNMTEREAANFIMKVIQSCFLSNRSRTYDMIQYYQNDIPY", "protocol": "as §1"}, "SNF1LK2": {"biological_target": "SNF1LK2 (Homo sapiens, UniProt Q9H0K1)", "sequence (Q9H0K1 whole entry)": "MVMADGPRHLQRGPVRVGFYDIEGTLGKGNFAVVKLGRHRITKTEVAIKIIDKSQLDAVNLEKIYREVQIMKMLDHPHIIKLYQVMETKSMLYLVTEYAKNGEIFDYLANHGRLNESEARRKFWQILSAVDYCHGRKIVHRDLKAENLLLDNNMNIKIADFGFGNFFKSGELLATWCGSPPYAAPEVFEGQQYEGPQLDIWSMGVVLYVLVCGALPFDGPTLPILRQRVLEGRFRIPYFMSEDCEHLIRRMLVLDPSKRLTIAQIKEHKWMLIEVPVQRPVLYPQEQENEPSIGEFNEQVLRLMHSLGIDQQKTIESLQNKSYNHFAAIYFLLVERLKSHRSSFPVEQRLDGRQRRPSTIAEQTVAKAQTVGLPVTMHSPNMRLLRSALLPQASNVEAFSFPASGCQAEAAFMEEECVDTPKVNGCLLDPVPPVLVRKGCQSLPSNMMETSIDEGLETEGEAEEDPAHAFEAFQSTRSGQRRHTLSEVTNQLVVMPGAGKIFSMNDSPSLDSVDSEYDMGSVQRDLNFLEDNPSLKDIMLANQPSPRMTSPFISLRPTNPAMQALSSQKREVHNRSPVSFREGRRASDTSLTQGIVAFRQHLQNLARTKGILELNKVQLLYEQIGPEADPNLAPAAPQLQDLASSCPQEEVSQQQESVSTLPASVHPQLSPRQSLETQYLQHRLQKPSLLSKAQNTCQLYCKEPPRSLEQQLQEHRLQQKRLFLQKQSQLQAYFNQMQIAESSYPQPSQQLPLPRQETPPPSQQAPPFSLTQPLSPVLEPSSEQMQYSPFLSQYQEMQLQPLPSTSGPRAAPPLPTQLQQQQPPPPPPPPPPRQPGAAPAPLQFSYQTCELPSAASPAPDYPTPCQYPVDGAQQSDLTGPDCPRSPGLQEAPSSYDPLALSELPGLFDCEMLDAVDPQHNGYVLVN", "protocol": "as §1"}, "[4]": {"settings": "1 h, 1 μM WEL028, 1 h preincubation"}},
  "note": "Several values for one entry are separate records, joined by “and”; a condition that tells them apart may be missing. Equal values may be shown once. Read-outs that look alike come from different tables or passages of the source.",
  "data": [
    {"smiles": "C#CCOc1ccc(Nc2ncc(Cl)c(Nc3ccccc3NC(=O)C=C)n2)c(OC)c1", "note": "[Compound 6]", "values": [
      {"measurement": "inhibition at 1 µM", "setting": "[1]", "result": 8, "unit": "%"},
      {"measurement": "inhibition at 1 µM", "setting": "CDC42 BPB (MRCKB)", "result": 6, "unit": "%"},
      {"measurement": "inhibition at 1 µM", "setting": "MYO3A (MYO3 alpha); [4]", "result": 17, "unit": "%"},
      {"measurement": "Inhibition at 1 µM (%)", "setting": "MYO3A (MYO3 alpha); MYO3A (MYO3 alpha), 1 µM, LanthaScreen Binding, listed as WEL028, 1 µM", "result": 16, "unit": "%"},
      {"measurement": "inhibition at 1 µM", "setting": "MYO3A (MYO3 alpha); read-out: Inhibition at 1 µM (%), MYO3A (MYO3 alpha), 1 µM, LanthaScreen Binding", "result": 18, "unit": "%"},
      {"measurement": "inhibition at 1 µM", "setting": "CDKL5; [4]", "result": 8, "unit": "%"},
      {"measurement": "Inhibition at 1 µM (%)", "setting": "CDKL5; CDKL5, 1 µM, ZLYTE, ATP Km app, listed as WEL028, 1 µM", "result": 9, "unit": "%"},
      {"measurement": "inhibition at 1 µM", "setting": "CDKL5; read-out: Inhibition at 1 µM (%), CDKL5, 1 µM, ZLYTE, ATP Km app", "result": 7, "unit": "%"},
      {"measurement": "Apparent fold selectivity", "setting": "MAP3K8 (COT) [2]", "result": 57, "unit": "fold"},
      {"measurement": "IC50", "setting": "MAP3K8 (COT) [3]", "result": 251, "unit": "nM"},
      {"measurement": "inhibition at 1 µM", "setting": "MAP3K8 (COT) [3]; [4]", "result": 77, "unit": "%"},
      {"measurement": "inhibition at 10 µM", "setting": "MAP3K8 (COT) [3]; 1 h, log[inhibitor] (M) -5.00, ZLYTE, ATP 100", "result": 100, "unit": "%"},
      {"measurement": "inhibition at 3.311 µM", "setting": "MAP3K8 (COT) [3]; 1 h, log[inhibitor] (M) -5.48, ZLYTE, ATP 100", "result": 101, "unit": "%"},
      {"measurement": "inhibition at 1.122 µM", "setting": "MAP3K8 (COT) [3]; 1 h, log[inhibitor] (M) -5.95, ZLYTE, ATP 100", "result": 95, "unit": "%"},
      {"measurement": "inhibition at 0.3715 µM", "setting": "MAP3K8 (COT) [3]; 1 h, log[inhibitor] (M) -6.43, ZLYTE, ATP 100", "result": 67, "unit": "%"},
      {"measurement": "inhibition at 0.123 µM", "setting": "MAP3K8 (COT) [3]; 1 h, log[inhibitor] (M) -6.91, ZLYTE, ATP 100", "result": 46, "unit": "%"},
      {"measurement": "inhibition at 0.04074 µM", "setting": "MAP3K8 (COT) [3]; 1 h, log[inhibitor] (M) -7.39, ZLYTE, ATP 100", "result": 34, "unit": "%"},
      {"measurement": "inhibition at 0.0138 µM", "setting": "MAP3K8 (COT) [3]; 1 h, log[inhibitor] (M) -7.86, ZLYTE, ATP 100", "result": 24, "unit": "%"},
      {"measurement": "inhibition at 0.001514 µM", "setting": "MAP3K8 (COT) [3]; 1 h, log[inhibitor] (M) -8.82, ZLYTE, ATP 100", "result": 15, "unit": "%"},
      {"measurement": "inhibition at 0.0004898 µM", "setting": "MAP3K8 (COT) [3]; 1 h, log[inhibitor] (M) -9.31, ZLYTE, ATP 100", "result": 17, "unit": "%"},
      {"measurement": "inhibition at 0.004571 µM", "setting": "MAP3K8 (COT) [3]; 1 h, log[inhibitor] (M) -[…], ZLYTE, ATP 100", "result": 17, "unit": "%"},
      {"measurement": "Inhibition at 1 µM (%)", "setting": "MAP3K8 (COT) [3]; MAP3K8 (COT), 1 µM, ZLYTE, ATP 100, listed as WEL028, 1 µM", "result": 82, "unit": "%"},
      {"measurement": "inhibition at 1 µM", "setting": "MAP3K8 (COT) [3]; read-out: Inhibition at 1 µM (%), MAP3K8 (COT), 1 µM, ZLYTE, ATP 100", "result": 73, "unit": "%"},
      {"measurement": "inhibition at 1 µM", "setting": "EPHA3; [4]", "result": 9, "unit": "%"},
      {"measurement": "Inhibition at 1 µM (%)", "setting": "EPHA3; EPHA3, 1 µM, LanthaScreen Binding, listed as WEL028, 1 µM", "result": 8, "unit": "%"},
      {"measurement": "inhibition at 1 µM", "setting": "EPHA3; read-out: Inhibition at 1 µM (%), EPHA3, 1 µM, LanthaScreen Binding", "result": 10, "unit": "%"},
      {"measurement": "inhibition at 1 µM", "setting": "CHEK2 (CHK2); [4]", "result": 4, "unit": "%"},
      {"measurement": "Inhibition at 1 µM (%)", "setting": "CHEK2 (CHK2); CHEK2 (CHK2), 1 µM, ZLYTE, ATP Km app", "result": 14, "unit": "%"},
      {"measurement": "inhibition at 1 µM", "setting": "PI4KA (PI4K alpha); [4]", "result": 7, "unit": "%"},
      {"measurement": "Inhibition at 1 µM (%)", "setting": "PI4KA (PI4K alpha); PI4KA (PI4K alpha), 1 µM, Adapta, ATP 10, listed as WEL028, 1 µM", "result": "3% and 11%"},
      {"measurement": "Inhibition at 1 µM (%)", "setting": "SNF1LK2; 1 µM, ZLYTE, ATP Km app, listed as WEL028, 1 µM", "result": "-8% and -5%"},
      {"measurement": "inhibition at 1 µM", "setting": "SNF1LK2; [4]", "result": -6, "unit": "%"}
    ]}
  ]
}
